Data as given in US4643989A, “Inhibition of aldosterone secretion” (The Salk Institute for Biological Studies, priority 1984, dated 1987).
Bridges are numbered along the chain shown (N, C = ends).

Tests used:
[1] = tested on: rat adrenoglomerulosa cells; test: Basal secretion of aldosterone by rat glomerulosa cells (radioimmunoassay); type: cell-based; settings: for testing as set forth in Example II (inhibition of aldosterone secretion by rat glomerulosa cells): compared with rANF(8-33) results of Example II
Description: (§1) Rat adrenoglomerulosa cells are obtained by enzymatic digest of adrenals harvested from peripubertal male Sprague Dawley rats(Holtzman, 125 g) using previously described methods, and testing is carried out to determine the effect of synthetic rANF(8-33) on the basal secretion of aldosterone by rat glomerulosa cells. Rat glomerulosa cells are prepared by enzymatic digestion of 20 rat adrenals after ennucleation. The cells remaining on the capsule are digested for 30 minutes with a mixture of collagenase and DNase (4 mg/ml, 4 μg/ml). Dispersed cells are filtered through gauze and centrifuged at 800 rpm for 15 minutes. The pellet is resuspended in M199 buffer containing 0.1% bovine serum albumin(BSA), and the cells are centrifuged at 800 rpm for 15 minutes. The cell pellet is again resuspended in M199-0.1% BSA buffer and distributed in 900-μl aliquots to 12×75 plastic tubes. The samples are preincubated for 90 minutes in a 37° C. waterbath under an atmosphere of 5% CO2 -95% O2. Aliquots of the test samples are added in a 100 μl volume and incubated for 4 hours. Aldosterone and corticosterone are measured by radioimmunoassay using antisera purchased from Endocrine Sciences, Oxnard, Calif. and [^3 H]-labelled steroid from New England Nuclear, Boston, Mass. Results are the mean±SEM of 7 replicates. Statistical analysis is performed by analysis of variance, and all points are significant (p<0.01) from control. In concentrations as low as ≤10^-9 M, there is a significant (p<0.01) inhibition of aldosterone synthesis that is even more accentuated when the higher concentrations are tested (p<0.001).

rat glomerulosa cells [2] = test: ACTH-stimulated aldosterone secretion by rat glomerulosa cells; type: cell-based; settings: equimolar amounts of ACTH and peptide; p<0.001 versus secretagogue alone
Description: as §1, with “Aliquots of the test samples are added in a 100 μl volume and incubated for 4 hours.” left out, “Results are the mean±SEM of 7 replicates. Statistical analysis is performed by analysis of variance, and all points are significant (p<0.01) from control. In concentrations as low as ≤10^-9 M, there is a significant (p<0.01) inhibition of aldosterone synthesis that is even more accentuated when the higher concentrations are tested (p<0.001).” left out
(§2) Similar inhibitory effects on aldosterone formation are obtained when its secretion by the glomerulosa cells in vitro is stimulated with either ACTH or AN-II. […] Aldosterone secretion is measured as above by radioimmunoassay. […]

rat glomerulosa cells [3] = test: AN-II-stimulated aldosterone secretion by rat glomerulosa cells; type: cell-based; settings: equimolar amounts of AN-II and peptide; p<0.001 versus secretagogue alone
Description: as §1, with “Aliquots of the test samples are added in a 100 μl volume and incubated for 4 hours.” left out, “Results are the mean±SEM of 7 replicates. Statistical analysis is performed by analysis of variance, and all points are significant (p<0.01) from control. In concentrations as low as ≤10^-9 M, there is a significant (p<0.01) inhibition of aldosterone synthesis that is even more accentuated when the higher concentrations are tested (p<0.001).” left out
as §2

rat glomerulosa cells [4] = test: Corticosterone formation by rat glomerulosa cells (radioimmunoassay); type: cell-based; settings: 10^-7 M peptide
Description: as §1
In other experiments, ANF(8-33) had no effect on pituitary ACTH secretion.

pituitary ACTH secretion = test: Pituitary ACTH secretion; settings: other experiments

Substance: rANF(5-33): rat ANF fragment 5-33
- testing as set forth in Example II (inhibition of aldosterone secretion by rat glomerulosa cells) [1]: comparable results

Substance: rANF(3-33)--NH2: C-terminal amide of rat ANF fragment 3-33
- testing as set forth in Example II (inhibition of aldosterone secretion by rat glomerulosa cells) [1]: comparable results

Substance: rANF(8-32)--NH2: C-terminal amide of rat ANF fragment 8-32
- testing as set forth in Example II (inhibition of aldosterone secretion by rat glomerulosa cells) [1]: comparable results

Substance: H-Arg-Arg-Ser-Ser-Cys-Phe-Gly-Gly-Arg-Met-Asp-Arg-Ile-Gly-Ala-Gln-Ser-Gly- Leu-Gly-Cys-Asn-Ser-Phe-Tyr-OH (H-RRSSCFGGRMDRIGAQSGLGCNSFY-OH; disulfide 5-21; ends not checked) [hANF(8-33)]
- testing as set forth in Example II (inhibition of aldosterone secretion by rat glomerulosa cells) [1]: comparable results

Substance: rANF(8-30): rat ANF fragment 8-30
- testing as set forth in Example II (inhibition of aldosterone secretion by rat glomerulosa cells) [1]: comparable results

Substance: rANF(8-33): 26-residue fragment of rat atrial natriuretic factor with disulfide bond between the Cys residues
- stimulation of aldosterone [1]: at no point was rANF(8-33) observed to stimulate aldosterone
- concentration giving significant inhibition of aldosterone synthesis (basal secretion) ([1]; basal, 4 hours incubation, p<0.01 versus control, more accentuated at higher concentrations (p<0.001)): ≤ 10^-9 M
- inhibition of ACTH-stimulated aldosterone secretion (rat glomerulosa cells [2]): significant inhibition of aldosterone secretion
- inhibition of AN-II-stimulated aldosterone secretion (rat glomerulosa cells [3]): significant inhibition of aldosterone secretion
- basal corticosterone formation (rat glomerulosa cells [4]; decrease from 24.7±0.8 ng/ml without peptide): 7.8 ± 0.3 ng/mL
- AN-II-stimulated corticosterone formation (rat glomerulosa cells [4]; decrease from 37.2±1.4 ng/ml without peptide, p<0.001): 21.9 ± 0.9 ng/mL
- ACTH-stimulated corticosterone formation (rat glomerulosa cells [4]; decrease from 43.4±0.7 ng/ml without peptide, p<0.001): 36.1 ± 0.7 ng/mL
- effect on pituitary ACTH secretion (pituitary ACTH secretion): no effect
